Results as given in patent publication US20170128592A1, “TARGETED POLYMERIC NANO-COMPLEXES AS DRUG DELIVERY SYSTEM” (Indian Institute of Technology, Bombay, priority 2015, published 2017).

Columns and labels:
Format in all cases: cell-based, human
Huh7 cells [1] = experiment: SRB cytotoxicity assay; conditions: Huh7, 48 hr incubation, mean ± SD of three experiments
Experimental: For cytotoxicity measurements, Hep G2 and Huh7 cells were incubated in 96-well plates (Nunc, USA) at 5×10^4 cells/well density and then treated with bare PLGA-b-PEG NP, Cet-PLEA-b-PEG NP (50-250 μg/mL), free drug CA4, its nano-complexes ([…]) and free drug 2 ME, its nano-complexes (1-15 μM) for 48 hr. […] The standard SRB assay was used to measure the cell viabilities. The absorbance was measured with a 96-well fluorescence plate reader (SPECTRAmax M2, Molecular Devices, USA) equipped with the SOFTmax Pro software (Molecular Devices), at a 550 nun wavelength. IC50 values of the free drugs and all the nanocomplexes were evaluated using OriginPro 8.0 software.

Huh7 cells [2] = experiment: Annexin V/PI apoptosis assay by flow cytometry; conditions: IC50 concentrations, 48 hr
Experimental: Annexin V and Propidium iodide (PI) staining detection kit was used to quantify apoptotic cells. […] A combination of Cet-PLGA-b-PEG-CA4 NP Cet-PLEA-b-PEG-2ME NP (15 nM+5 μM) was also evaluated. Untreated and bare PLGA-b-PEG NP treated cells served as the negative controls. Cells were washed twice with PBS and resuspended in 400 μL of 1× binding buffer. Then, 5 μL of Annexin V-FITC and PI solution were added to the test samples, incubated for 15 min in dark at room temperature, and analyzed using flow cytometer BD FACS ARIA special order system equipped with the BD FACSDiva. (Becton and Dickinson, USA) software program. The fluorescence of 20,000 cells were gated and counted for each sample.

[3] = tested on: pHistone H3 in Huh7 cells; experiment: Immunofluorescence of Histone H3 phosphorylation (Serine 10); conditions: 48 hr
Experimental: (§1) To evaluate the effect of nanocomplexes on EGFR and tubulin interactions, Huh7 cells (5×10^4 cells/well) in 24 well plates were treated with 15 nM of CA4, PLGA-b-PEG-CA4 NP, Cet-PLGA-b-PEG-CA4 NP, 5 μM of 2 ME, PLGA-b-PEG-2 ME NP, Cet-PLGA-b-PEG-2 ME NP and combinatorial Cet-PLEA-b-PEG-CA4 NP+Cet-PLGA-b-PEG-2 ME NP (15 nM+5 μM) for 48 hr. Untreated and bare PLGA-b-PEG NP treated cells served as the negative controls. Cells were then fixed with 3.7% formaldehyde at 37° C. for 30 min and immunostained with primary antibodies anti-EGFR, anti-pEGFR XP rabbit monoclonal antibodies (Cell Signaling Technology Inc., USA), anti-α-Tubulin mouse monoclonal antibody (Signa Aldrich, USA) and anti-pHistone H3 rabbit polyclonal antibody (Ser-10, Santa Cruz Biotechnology, USA) followed by incubation with secondary antibody FITC-conjugated anti-mouse IgG or FITC-conjugated anti-rabbit IgG (Sigma Aldrich, USA) or anti-mouse IgG-Alexa 568 conjugate (Invitrogen, USA). Hoechst 33258 was used for DNA counterstaining and cells were examined under CLSM.

[4] = tested on: pEGFR expression in Huh7 cells; experiment: Immunofluorescence (CLSM) of pEGFR expression; conditions: 48 hr
Experimental: as §1

| SMILES | IC50 (Huh7 cells [1]) [µM] | induction of apoptosis (Huh7 cells [2]) [%] | pHistone H3 positive cells ([3]; 5 μM) [%] | effect on pEGFR expression by CLSM ([4]; 5 μM) | pHistone H3 positive cells ([3]; 15 nM) [%] | effect on pEGFR expression by CLSM ([4]; 15 nM) |
| --- | --- | --- | --- | --- | --- | --- |
| COc1cc2c(cc1O)CC[C@@H]1[C@@H]2CC[C@]2(C)[C@@H](O)CC[C@@H]12 [2 ME, 2-methoxyestradiol] | 3.5 | 2.6 | 2±0.7 | moderately affected |  |  |
| COc1ccc(/C=C\c2cc(OC)c(OC)c(OC)c2)cc1O [CA4, combretastatin A4] | 0.0149 | 11.5 |  |  | 4±0.3 | moderately affected |
